Measurements published in article PMC3545969, “Mutagenicity and antimutagenicity of (−)-hinokinin a trypanosomicidal compound measured by Salmonella microsome and comet assays” (BMC Complementary and Alternative Medicine, 2012).
Where two headings read alike, the source gives them in different places. Marks after values point to notes of the source that are not given here.

Tests used:
[1] = system: Salmonella typhimurium TA98
[2] = system: Salmonella typhimurium TA97a; settings: TA 97a
[3] = system: Chinese hamster lung fibroblast V79 cells; design: method as in PMID 20452459; settings: cited from earlier work
[4] = system: Salmonella typhimurium TA98; remark: listed apart in the source
[5] = system: Salmonella typhimurium TA100
[6] = system: Salmonella typhimurium TA100; remark: listed apart in the source
[7] = system: rat peripheral blood; design: method as in PMID 17141387; settings: cited from earlier work
[8] = TA 98, − S9, HK 19.5 μg/plate + NOPD 10.0 μg/plate
[9] = TA 98, − S9, HK 39.0 μg/plate + NOPD 10.0 μg/plate
[10] = TA 98, − S9, HK 58.5 μg/plate + NOPD 10.0 μg/plate
[11] = TA 98, − S9, HK 78.0 μg/plate + NOPD 10.0 μg/plate
[12] = TA 98, − S9, HK […] + NOPD 10.0 μg/plate
[13] = TA 100, + S9, HK 19.5 μg/plate + AFB1 0.5 μg/plate
[14] = TA 100, + S9, HK 39.0 μg/plate + AFB1 0.5 μg/plate
[15] = TA 100, + S9, HK 58.5 μg/plate + AFB1 0.5 μg/plate
[16] = TA 100, + S9, HK 78.0 μg/plate + AFB1 0.5 μg/plate
[17] = TA 100, + S9, HK […] + AFB1 0.5 μg/plate
[18] = TA 100, − S9, HK 19.5 μg/plate + SA 1.25 μg/plate
[19] = TA 100, − S9, HK 39.0 μg/plate + SA 1.25 μg/plate
[20] = TA 100, − S9, HK 58.5 μg/plate + SA 1.25 μg/plate
[21] = TA 100, − S9, HK 78.0 μg/plate + SA 1.25 μg/plate
[22] = TA 100, − S9, HK […] + SA 1.25 μg/plate

Compound: O=C1OC[C@H](Cc2ccc3c(c2)OCO3)[C@H]1Cc1ccc2c(c1)OCO2 [HK, (−)-hinokinin]
- MI (mutagenicity index) ([1]; TA 98, + S9, HK 19.5 μg/plate): 1.1
- Number of revertants(M ± SD)/ plate ([1]; TA 98, + S9, HK 19.5 μg/plate): 34 ± 3 revertants/plate
- MI (mutagenicity index) ([1]; TA 98, + S9, HK 39.0 μg/plate): 1.0
- Number of revertants(M ± SD)/ plate ([1]; TA 98, + S9, HK 39.0 μg/plate): 33 ± 4 revertants/plate
- MI (mutagenicity index) ([1]; TA 98, + S9, HK 58.5 μg/plate): 0.8
- Number of revertants(M ± SD)/ plate ([1]; TA 98, + S9, HK 58.5 μg/plate): 28 ± 1 revertants/plate
- MI (mutagenicity index) ([1]; TA 98, + S9, HK 78.0 μg/plate): 1.0
- Number of revertants(M ± SD)/ plate ([1]; TA 98, + S9, HK 78.0 μg/plate): 31 ± 2 revertants/plate
- MI (mutagenicity index) ([1]; TA 98, - S9, HK 19.5 μg/plate): 1.0
- Number of revertants(M ± SD)/ plate ([1]; TA 98, - S9, HK 19.5 μg/plate): 23 ± 3 revertants/plate
- MI (mutagenicity index) ([1]; TA 98, - S9, HK 39.0 μg/plate): 1.1
- Number of revertants(M ± SD)/ plate ([1]; TA 98, - S9, HK 39.0 μg/plate): 25 ± 3 revertants/plate
- MI (mutagenicity index) ([1]; TA 98, - S9, HK 58.5 μg/plate): 1.1
- Number of revertants(M ± SD)/ plate ([1]; TA 98, - S9, HK 58.5 μg/plate): 25 ± 2 revertants/plate
- MI (mutagenicity index) ([1]; TA 98, - S9, HK 78.0 μg/plate): 1.1
- Number of revertants(M ± SD)/ plate ([1]; TA 98, - S9, HK 78.0 μg/plate): 24 ± 5 revertants/plate
- MI (mutagenicity index) ([2]; + S9, HK 19.5 μg/plate): 1.1
- Number of revertants(M ± SD)/ plate ([2]; + S9, HK 19.5 μg/plate): 187 ± 3 revertants/plate
- MI (mutagenicity index) ([2]; + S9, HK 39.0 μg/plate): 1.0
- Number of revertants(M ± SD)/ plate ([2]; + S9, HK 39.0 μg/plate): 166 ± 5 revertants/plate
- MI (mutagenicity index) ([2]; + S9, HK 58.5 μg/plate): 1.0
- Number of revertants(M ± SD)/ plate ([2]; + S9, HK 58.5 μg/plate): 172 ± 2 revertants/plate
- MI (mutagenicity index) ([2]; + S9, HK 78.0 μg/plate): 0.9
- Number of revertants(M ± SD)/ plate ([2]; + S9, HK 78.0 μg/plate): 146 ± 4 revertants/plate
- MI (mutagenicity index) ([2]; - S9, HK 39.0 μg/plate): 0.9
- Number of revertants(M ± SD)/ plate ([2]; - S9, HK 39.0 μg/plate): 146 ± 5 revertants/plate
- MI (mutagenicity index) ([2]; - S9, HK 58.5 μg/plate): 1.1
- Number of revertants(M ± SD)/ plate ([2]; - S9, HK 58.5 μg/plate): 175 ± 4 revertants/plate
- MI (mutagenicity index) ([2]; - S9, HK 78.0 μg/plate): 1.0
- Number of revertants(M ± SD)/ plate ([2]; - S9, HK 78.0 μg/plate): 163 ± 8 revertants/plate
- genotoxic effect, micronucleus test ([3]; HK alone): no genotoxic effect
- effect on chromosome damage caused by MMS, micronucleus test [3]: reduced the chromosome damage caused by MMS
- effect on DXR-induced clastogenicity, micronucleus test ([3]; higher concentrations of HK): potentiator of DXR-induced clastogenicity
- effect on DXR-induced clastogenicity, micronucleus test ([3]; lower concentrations of HK): reduction in DXR-induced clastogenicity
- % inhibition ([4]; TA 98, + S9, HK 19.5 μg/plate + B[a]P 1.0 μg/plate): 32** %
- % inhibition ([4]; TA 98, + S9, HK 39.0 μg/plate + B[a]P 1.0 μg/plate): 36** %
- % inhibition ([4]; TA 98, + S9, HK 58.5 μg/plate + B[a]P 1.0 μg/plate): 52*** %
- % inhibition ([4]; TA 98, + S9, HK 78.0 μg/plate + B[a]P 1.0 μg/plate): 59*** %
- % inhibition ([4]; TA 98, + S9, HK […] + B[a]P 1.0 μg/plate): 31** %
- % inhibition [4, 8]: 21* %
- Number of revertants(M ± SD)/ plate [4, 8]: 507 + 15 revertants/plate
- % inhibition [4, 9]: 26** %
- Number of revertants(M ± SD)/ plate [4, 9]: 477 + 5 revertants/plate
- % inhibition [4, 10]: 19* %
- Number of revertants(M ± SD)/ plate [4, 10]: 521 + 9 revertants/plate
- % inhibition [4, 11]: 25** %
- Number of revertants(M ± SD)/ plate [4, 11]: 480 + 16 revertants/plate
- % inhibition [4, 12]: 18* %
- Number of revertants(M ± SD)/ plate [4, 12]: 525 + 7 revertants/plate
- MI (mutagenicity index) ([5]; TA 100, + S9, HK 19.5 μg/plate): 1.0
- Number of revertants(M ± SD)/ plate ([5]; TA 100, + S9, HK 19.5 μg/plate): 128 ± 6 revertants/plate
- MI (mutagenicity index) ([5]; TA 100, + S9, HK 39.0 μg/plate): 0.9
- Number of revertants(M ± SD)/ plate ([5]; TA 100, + S9, HK 39.0 μg/plate): 115 ± 8 revertants/plate
- MI (mutagenicity index) ([5]; TA 100, + S9, HK 58.5 μg/plate): 1.1
- Number of revertants(M ± SD)/ plate ([5]; TA 100, + S9, HK 58.5 μg/plate): 134 ± 2 revertants/plate
- MI (mutagenicity index) ([5]; TA 100, + S9, HK 78.0 μg/plate): 1.0
- Number of revertants(M ± SD)/ plate ([5]; TA 100, + S9, HK 78.0 μg/plate): 120 ± 8 revertants/plate
- MI (mutagenicity index) ([5]; TA 100, - S9, HK 19.5 μg/plate): 1.0
- Number of revertants(M ± SD)/ plate ([5]; TA 100, - S9, HK 19.5 μg/plate): 129 ± 6 revertants/plate
- MI (mutagenicity index) ([5]; TA 100, - S9, HK 39.0 μg/plate): 1.0
- Number of revertants(M ± SD)/ plate ([5]; TA 100, - S9, HK 39.0 μg/plate): 134 ± 5 revertants/plate
- MI (mutagenicity index) ([5]; TA 100, - S9, HK 58.5 μg/plate): 0.8
- Number of revertants(M ± SD)/ plate ([5]; TA 100, - S9, HK 58.5 μg/plate): 112 ± 3 revertants/plate
- MI (mutagenicity index) ([5]; TA 100, - S9, HK 78.0 μg/plate): 1.1
- Number of revertants(M ± SD)/ plate ([5]; TA 100, - S9, HK 78.0 μg/plate): 140 ± 9 revertants/plate
- % inhibition [6, 13]: 45*** %
- Number of revertants(M ± SD)/ plate [6, 13]: 976 + 18 revertants/plate
- % inhibition [6, 14]: 47*** %
- Number of revertants(M ± SD)/ plate [6, 14]: 943 + 11 revertants/plate
- % inhibition [6, 15]: 71*** %
- Number of revertants(M ± SD)/ plate [6, 15]: 612 + 33 revertants/plate
- % inhibition [6, 16]: 89*** %
- Number of revertants(M ± SD)/ plate [6, 16]: 354 + 22 revertants/plate
- % inhibition [6, 17]: 30** %
- Number of revertants(M ± SD)/ plate [6, 17]: 1183 + 30 revertants/plate
- effect on mutation induced by AFB1 ([6]; TA100, +S9): did inhibit mutation induced by the alkylating agent AFB1
- effect on mutagenesis induced by SA ([6]; TA100, absence of metabolic activation): did not reduce mutagenesis
- % inhibition [6, 18]: 9* %
- Number of revertants(M ± SD)/ plate [6, 18]: 1112 + 34 revertants/plate
- % inhibition [6, 19]: 5* %
- Number of revertants(M ± SD)/ plate [6, 19]: 1169 + 32 revertants/plate
- % inhibition [6, 20]: 7* %
- Number of revertants(M ± SD)/ plate [6, 20]: 1145 + 16 revertants/plate
- % inhibition [6, 21]: 3* %
- Number of revertants(M ± SD)/ plate [6, 21]: 1181 + 41 revertants/plate
- % inhibition [6, 22]: 7* %
- Number of revertants(M ± SD)/ plate [6, 22]: 1139 + 20 revertants/plate
- effect on chromosome damage induced by DXR, micronucleus test [7]: effective in reducing the chromosome damage induced by DXR
- genotoxic effect, micronucleus test [7]: no genotoxic effect
